# Read-outs that look alike come from different tables or passages of the source.
# What was measured:
# [1] = system: rats suffering galactosamine induced fulminant hepatitis; conditions: ten days after galactosamine
# Experimental: Because of the similarity of pathological findings to those of human hepatitis and a large number of patients, experiments were carried out on the effect of administration of proline on the survival rate of rats suffering galactosamine induced fulminant hepatitis commonly used as a hepatitis model.
# Fisher strain rats (male; eight weeks of age; body weight: 160 to 190 g) were divided into four groups each comprising nine rats. Rats of three groups were administered with 30% galactosamine hydrochloride-saline through intraperitoneal administration (1.4 g/kg body weight) to form fulminant hepatitis models (GalN), and only saline was administered to the remaining group to form a control group.
# For 12 hours before and after administration of galactosamine, the rats were fasted, and from 12 hours prior to administration of galactosamine through six hours thereafter, the rats were caused to freely ingest 10% glucose aqueous solution.
# [2] = system: rats suffering galactosamine induced fulminant hepatitis; conditions: blood sampled 36 hours after galactosamine; Pre-Pro and Post-Pro groups, proline 2.0 g/kg oral
# Experimental: The effect of administration of proline on transamylase activity in blood of rats suffering galactosamine induced fulminant hepatitis was investigated.
# Blood was sampled from each of the four groups of rats (GalN, Control, Pre-Pro, and Post-Pro) of Example 1, upon the lapse of 36 hours after administration of galactosamine, and activity of transamylase in blood (glutamic-oxaloacetic acid transamylase: GOT; glutamic-pyruvic acid transamylase: GPT) was measured in accordance with the conventional method.
# [3] = system: LEC rat which spontaneously develops hepatitis, cirrhosis and hepatoma; experiment: death rate and jaundice of LEC rats that spontaneously develop hepatitis; assay type: in vivo
# Description: An effect of proline was investigated by using LEC rat which spontaneously develops hepatitis, cirrhosis and hepatoma.
# Weanlings of LEC rats (seven weeks of age: food deprived for one week before testing) were divided into 2 groups, and copper deficiency feed and normal feed were presented to the groups, respectively. The rats of 2 groups were further divided into 3 groups: group of free drinking of proline solution (0.2M of proline in distilled water); group of oral administration of proline solution (135-150 mg of proline/day); and group of free drinking of water. Death rate of 6 groups of rats were measured. A relationship between the amount of proline solution consumed by rats and the degree of jaundice of the rats was also measured.
compound,measurement,setting,value
"O=C(O)[C@@H]1CCCN1 [Proline, proline]",survival rate,"[1]; post-administration (Post-Pro) group: proline 2.0 g/kg oral at 6, 12 and 24 hours after galactosamine (1.4 g/kg i.p.), 7/9",78%
same,survival rate,"[1]; pre-administration (Pre-Pro) group: proline 2.0 g/kg oral one hour prior to and 12 and 24 hours after galactosamine (1.4 g/kg i.p.), 9/9",100%
same,increase in the concentration of GOT in blood,[2],largely inhibited
same,increase in the concentration of GPT in blood,[2],largely inhibited
same,degree of jaundice,"[3]; LEC rats ingesting proline solution, Fig. 3",diminished the jaundice
same,Death rate,"[3]; copper deficiency feed, free drinking of proline solution (0.2M in distilled water)",0%
same,Death rate,"[3]; copper deficiency feed, oral administration of proline solution (135-150 mg of proline/day)",0%
same,Death rate,"[3]; normal feed, free drinking of proline solution (0.2M in distilled water)",85%
same,Death rate,"[3]; normal feed, oral administration of proline solution (135-150 mg of proline/day)",57%
